According to ChEMBL document CHEMBL5465560, “Selectivity Literature for EUbOPEN Chemogenomic Library” (2024):
Values belong to the compound of their own block, whether it stands above or below them.

Tests used:
[1] = system: Tyrosine-protein kinase ABL1 (Homo sapiens), P00519 [H396P]; details: at 10 µM
[2] = biological target: T1, Serine/threonine-protein kinase Nek1 (Homo sapiens) (UniProt Q96PY6); assay: Selectivity interaction (Ambit KINOMEscan and KiNATiv profiling in Jurkat cells) EUB0000090b NEK1; type: cell-based; details: at 1 µM
T1 sequence (whole entry): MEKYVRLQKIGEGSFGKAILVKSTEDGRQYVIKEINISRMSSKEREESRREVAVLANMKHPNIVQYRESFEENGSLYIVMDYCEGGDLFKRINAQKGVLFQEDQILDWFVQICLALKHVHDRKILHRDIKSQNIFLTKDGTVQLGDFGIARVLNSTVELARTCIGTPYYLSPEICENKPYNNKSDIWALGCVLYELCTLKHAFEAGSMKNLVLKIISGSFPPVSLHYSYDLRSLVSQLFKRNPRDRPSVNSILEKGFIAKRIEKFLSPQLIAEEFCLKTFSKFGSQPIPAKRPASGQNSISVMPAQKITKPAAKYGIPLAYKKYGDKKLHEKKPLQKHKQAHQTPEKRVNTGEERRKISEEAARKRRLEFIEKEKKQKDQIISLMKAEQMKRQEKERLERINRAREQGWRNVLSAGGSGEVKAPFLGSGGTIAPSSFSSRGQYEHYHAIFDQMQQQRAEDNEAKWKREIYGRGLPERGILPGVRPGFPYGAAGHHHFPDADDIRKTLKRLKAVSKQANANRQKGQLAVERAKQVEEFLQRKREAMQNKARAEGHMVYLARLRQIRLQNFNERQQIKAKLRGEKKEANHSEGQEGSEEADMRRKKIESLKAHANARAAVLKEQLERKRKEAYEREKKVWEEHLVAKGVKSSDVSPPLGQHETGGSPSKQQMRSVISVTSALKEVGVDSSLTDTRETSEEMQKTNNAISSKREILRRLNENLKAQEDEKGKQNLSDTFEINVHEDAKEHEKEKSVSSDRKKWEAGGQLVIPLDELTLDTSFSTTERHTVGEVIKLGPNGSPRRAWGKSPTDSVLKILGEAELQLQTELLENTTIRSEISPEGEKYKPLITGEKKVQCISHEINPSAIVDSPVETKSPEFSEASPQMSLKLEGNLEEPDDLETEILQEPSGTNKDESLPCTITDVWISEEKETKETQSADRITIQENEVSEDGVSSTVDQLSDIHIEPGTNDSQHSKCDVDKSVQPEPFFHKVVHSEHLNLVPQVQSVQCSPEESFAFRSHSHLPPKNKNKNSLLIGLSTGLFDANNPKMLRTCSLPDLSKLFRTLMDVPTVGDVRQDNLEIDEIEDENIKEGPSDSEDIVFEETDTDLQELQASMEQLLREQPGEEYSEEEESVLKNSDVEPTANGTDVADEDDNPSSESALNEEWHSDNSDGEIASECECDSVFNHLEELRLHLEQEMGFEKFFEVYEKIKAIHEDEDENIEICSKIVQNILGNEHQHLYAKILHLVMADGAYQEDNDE

[3] = biological target: Serine/threonine-protein kinase 38-like (Homo sapiens) (UniProt Q9Y2H1); assay: Selectivity interaction (Kinase panel (DSF assay)) EUB0001559a STK38L
Sequence of Serine/threonine-protein kinase 38-like (Homo sapiens) (Q9Y2H1 2-464 limits assumed): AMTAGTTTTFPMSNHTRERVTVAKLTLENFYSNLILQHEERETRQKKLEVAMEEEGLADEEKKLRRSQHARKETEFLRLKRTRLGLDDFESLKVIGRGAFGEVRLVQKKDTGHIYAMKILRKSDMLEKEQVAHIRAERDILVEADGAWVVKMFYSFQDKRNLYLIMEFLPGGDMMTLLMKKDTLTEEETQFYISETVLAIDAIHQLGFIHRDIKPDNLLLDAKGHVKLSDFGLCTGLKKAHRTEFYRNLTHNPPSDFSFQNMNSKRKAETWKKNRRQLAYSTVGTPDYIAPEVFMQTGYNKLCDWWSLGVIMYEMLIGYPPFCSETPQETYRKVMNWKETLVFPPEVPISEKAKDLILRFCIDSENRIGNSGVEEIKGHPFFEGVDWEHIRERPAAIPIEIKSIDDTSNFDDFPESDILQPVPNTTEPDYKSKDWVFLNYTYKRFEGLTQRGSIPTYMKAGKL

[4] = biological target: Phosphatidylinositol 4,5-bisphosphate 3-kinase catalytic subunit beta isoform (Homo sapiens) (UniProt P42338); assay: Selectivity interaction (KinomeScan (DiscoverX)) EUB0000655a PIK3CB; details: at 10 µM
Sequence of Phosphatidylinositol 4,5-bisphosphate 3-kinase catalytic subunit beta isoform (Homo sapiens) (P42338 whole entry, looked up, canonical isoform): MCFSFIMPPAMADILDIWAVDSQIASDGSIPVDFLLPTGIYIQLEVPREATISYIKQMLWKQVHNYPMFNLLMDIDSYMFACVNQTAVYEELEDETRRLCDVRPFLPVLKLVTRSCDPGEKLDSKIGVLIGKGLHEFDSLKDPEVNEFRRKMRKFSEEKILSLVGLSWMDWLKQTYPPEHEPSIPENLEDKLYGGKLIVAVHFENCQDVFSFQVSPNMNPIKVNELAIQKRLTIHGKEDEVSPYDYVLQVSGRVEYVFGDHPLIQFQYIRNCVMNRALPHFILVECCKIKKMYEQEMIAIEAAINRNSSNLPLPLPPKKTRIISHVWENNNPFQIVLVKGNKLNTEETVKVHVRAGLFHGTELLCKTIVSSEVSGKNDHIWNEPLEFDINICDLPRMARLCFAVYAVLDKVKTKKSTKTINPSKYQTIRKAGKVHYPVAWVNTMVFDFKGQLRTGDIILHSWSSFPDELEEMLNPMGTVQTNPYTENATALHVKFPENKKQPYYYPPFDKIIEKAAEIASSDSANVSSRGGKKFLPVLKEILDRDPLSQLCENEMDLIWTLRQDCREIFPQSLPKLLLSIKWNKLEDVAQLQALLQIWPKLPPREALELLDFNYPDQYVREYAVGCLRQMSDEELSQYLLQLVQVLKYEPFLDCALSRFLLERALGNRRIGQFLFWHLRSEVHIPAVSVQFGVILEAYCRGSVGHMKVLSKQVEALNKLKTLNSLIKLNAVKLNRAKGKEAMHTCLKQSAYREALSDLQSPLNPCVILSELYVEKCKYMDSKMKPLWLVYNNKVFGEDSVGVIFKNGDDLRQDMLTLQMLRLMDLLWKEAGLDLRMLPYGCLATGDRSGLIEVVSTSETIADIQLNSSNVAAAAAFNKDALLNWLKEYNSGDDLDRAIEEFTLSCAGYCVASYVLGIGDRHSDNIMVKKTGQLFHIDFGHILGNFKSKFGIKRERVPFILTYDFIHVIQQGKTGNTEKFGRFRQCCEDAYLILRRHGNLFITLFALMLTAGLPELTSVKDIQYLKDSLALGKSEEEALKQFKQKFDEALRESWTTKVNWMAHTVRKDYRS

[5] = biological target: cAMP-dependent protein kinase catalytic subunit beta (Homo sapiens) (UniProt P22694); assay: Selectivity interaction (KinomeScan (DiscoverX)) EUB0000607a PRKACB; details: at 10 µM
[6] = biological target: Serine/threonine-protein kinase 38-like (Homo sapiens) (UniProt Q9Y2H1); assay: Selectivity interaction (Kinase panel (DSF assay)) EUB0001558a STK38L
[7] = biological target: Phosphorylase b kinase gamma catalytic chain, skeletal muscle/heart isoform (Homo sapiens) (UniProt Q16816); assay: Selectivity interaction (Kinase panel (Invitrogen)) EUB0000639a PHKG1; details: at 200 nM
Sequence of Phosphorylase b kinase gamma catalytic chain, skeletal muscle/heart isoform (Homo sapiens) (Q16816 whole entry, looked up, canonical isoform): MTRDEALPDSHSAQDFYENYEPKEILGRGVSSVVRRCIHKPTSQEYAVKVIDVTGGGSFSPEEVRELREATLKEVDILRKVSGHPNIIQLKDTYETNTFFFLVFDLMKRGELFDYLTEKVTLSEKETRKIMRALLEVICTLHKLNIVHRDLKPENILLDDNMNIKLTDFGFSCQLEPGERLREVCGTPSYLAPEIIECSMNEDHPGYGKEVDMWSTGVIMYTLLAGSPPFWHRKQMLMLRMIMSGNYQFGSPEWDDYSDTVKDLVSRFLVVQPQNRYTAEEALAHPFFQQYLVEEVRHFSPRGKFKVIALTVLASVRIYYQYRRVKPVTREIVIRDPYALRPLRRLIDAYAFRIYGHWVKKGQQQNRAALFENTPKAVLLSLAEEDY

[8] = biological target: Serine/threonine-protein kinase MARK2 (Homo sapiens) (UniProt Q7KZI7); assay: Selectivity interaction (ActivX KiNativ screen (kinase selectivity in THP-1 cell lysates)) EUB0000639a MARK2; type: subcellular; details: lysate, at 0.2 µM
Sequence of Serine/threonine-protein kinase MARK2 (Homo sapiens) (Q7KZI7 whole entry): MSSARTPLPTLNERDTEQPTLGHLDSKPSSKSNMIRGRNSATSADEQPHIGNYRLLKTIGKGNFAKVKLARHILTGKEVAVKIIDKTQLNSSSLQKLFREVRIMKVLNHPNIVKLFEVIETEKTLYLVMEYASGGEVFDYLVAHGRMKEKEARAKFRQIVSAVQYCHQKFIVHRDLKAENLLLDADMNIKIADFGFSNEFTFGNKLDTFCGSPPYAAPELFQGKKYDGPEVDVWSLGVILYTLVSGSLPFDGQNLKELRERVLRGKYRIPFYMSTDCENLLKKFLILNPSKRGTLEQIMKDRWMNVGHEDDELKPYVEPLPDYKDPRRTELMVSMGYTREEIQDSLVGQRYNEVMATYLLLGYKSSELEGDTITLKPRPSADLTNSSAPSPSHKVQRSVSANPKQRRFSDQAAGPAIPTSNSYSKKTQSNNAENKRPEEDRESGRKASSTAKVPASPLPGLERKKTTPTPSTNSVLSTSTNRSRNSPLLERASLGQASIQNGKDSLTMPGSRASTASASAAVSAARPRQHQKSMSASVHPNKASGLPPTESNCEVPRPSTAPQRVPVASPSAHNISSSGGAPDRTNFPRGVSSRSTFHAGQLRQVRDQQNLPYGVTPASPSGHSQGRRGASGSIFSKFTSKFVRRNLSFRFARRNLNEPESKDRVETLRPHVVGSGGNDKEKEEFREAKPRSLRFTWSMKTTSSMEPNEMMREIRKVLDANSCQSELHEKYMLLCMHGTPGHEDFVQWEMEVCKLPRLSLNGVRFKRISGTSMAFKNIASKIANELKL

[9] = biological target: Bromodomain and WD repeat-containing protein 1 (Homo sapiens) (UniProt Q9NSI6); assay: Selectivity interaction (Bromodomain panel (DSF asssay)) EUB0000270b BRWD1
[10] = biological target: Protein kinase C beta type (Homo sapiens, UniProt P05771); assay: Selectivity interaction (ProQinase) EUB0000171b PRKCB
Sequence of Protein kinase C beta type (P05771 2-671 limits assumed): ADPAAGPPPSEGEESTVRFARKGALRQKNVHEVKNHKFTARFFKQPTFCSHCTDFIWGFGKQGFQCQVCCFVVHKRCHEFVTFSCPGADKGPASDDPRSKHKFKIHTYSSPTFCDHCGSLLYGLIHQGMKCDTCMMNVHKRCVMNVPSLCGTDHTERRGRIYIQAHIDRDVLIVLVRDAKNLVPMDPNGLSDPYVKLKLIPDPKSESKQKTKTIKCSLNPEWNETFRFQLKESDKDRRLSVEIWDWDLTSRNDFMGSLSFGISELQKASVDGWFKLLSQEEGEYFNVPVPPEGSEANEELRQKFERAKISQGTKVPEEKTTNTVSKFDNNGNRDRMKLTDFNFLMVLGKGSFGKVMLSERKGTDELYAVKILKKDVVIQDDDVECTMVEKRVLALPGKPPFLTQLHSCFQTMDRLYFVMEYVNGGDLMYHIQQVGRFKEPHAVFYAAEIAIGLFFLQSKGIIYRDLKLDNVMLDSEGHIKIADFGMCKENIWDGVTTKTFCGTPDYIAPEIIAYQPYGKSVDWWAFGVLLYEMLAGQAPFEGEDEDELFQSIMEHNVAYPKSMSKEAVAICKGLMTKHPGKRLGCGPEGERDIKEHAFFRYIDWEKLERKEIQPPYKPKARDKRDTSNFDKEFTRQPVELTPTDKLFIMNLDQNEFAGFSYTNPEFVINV

[11] = biological target: Phosphatidylinositol 4,5-bisphosphate 3-kinase catalytic subunit beta isoform (Homo sapiens) (UniProt P42338); assay: Selectivity interaction (ProQinase) EUB0000171b PIK3CB
[12] = biological target: Phosphatidylinositol 4-phosphate 5-kinase type-1 gamma (Homo sapiens) (UniProt O60331); assay: Selectivity interaction (KinomeScan (DiscoverX)) EUB0001049a PIP5K1C; details: at 1 µM
Sequence of Phosphatidylinositol 4-phosphate 5-kinase type-1 gamma (Homo sapiens) (O60331 whole entry): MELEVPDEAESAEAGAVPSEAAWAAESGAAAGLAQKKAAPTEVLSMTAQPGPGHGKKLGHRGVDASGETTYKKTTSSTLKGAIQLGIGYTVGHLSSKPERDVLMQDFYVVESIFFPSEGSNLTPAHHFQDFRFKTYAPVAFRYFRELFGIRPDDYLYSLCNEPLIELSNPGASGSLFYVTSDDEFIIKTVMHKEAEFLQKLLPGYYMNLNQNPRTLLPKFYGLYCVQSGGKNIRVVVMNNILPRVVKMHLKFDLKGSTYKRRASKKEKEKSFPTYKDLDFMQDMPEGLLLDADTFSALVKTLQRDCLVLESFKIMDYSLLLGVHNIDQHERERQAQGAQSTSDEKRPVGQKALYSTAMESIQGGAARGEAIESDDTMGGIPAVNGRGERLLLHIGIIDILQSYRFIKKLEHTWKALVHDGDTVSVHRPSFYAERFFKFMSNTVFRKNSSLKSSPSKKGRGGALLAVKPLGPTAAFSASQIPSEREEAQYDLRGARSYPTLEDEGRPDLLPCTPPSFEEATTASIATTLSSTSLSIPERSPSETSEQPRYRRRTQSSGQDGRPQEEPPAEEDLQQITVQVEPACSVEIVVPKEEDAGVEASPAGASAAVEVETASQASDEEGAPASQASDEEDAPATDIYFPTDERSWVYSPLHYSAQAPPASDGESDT

[13] = biological target: Leucine-rich repeat serine/threonine-protein kinase 2 (Homo sapiens, UniProt Q5S007); assay: (§1) Selectivity interaction (KinomeScan (DiscoverX)) EUB0000092b LRRK2; details: at 10 µM
[14] = system: Leucine-rich repeat serine/threonine-protein kinase 2 (Homo sapiens), Q5S007 [G2019S]; assay: as §1; details: at 10 µM
[15] = system: Activin receptor type-1 (Homo sapiens), Q04771 [R206H]; assay: (§2) Selectivity interaction (LanthaScreen Eu Kinase Binding Assay) EUB0001632a ACVR1; details: at 10 µM
Sequence of Activin receptor type-1 (Homo sapiens), Q04771 [R206H] (Q04771 whole entry R206H): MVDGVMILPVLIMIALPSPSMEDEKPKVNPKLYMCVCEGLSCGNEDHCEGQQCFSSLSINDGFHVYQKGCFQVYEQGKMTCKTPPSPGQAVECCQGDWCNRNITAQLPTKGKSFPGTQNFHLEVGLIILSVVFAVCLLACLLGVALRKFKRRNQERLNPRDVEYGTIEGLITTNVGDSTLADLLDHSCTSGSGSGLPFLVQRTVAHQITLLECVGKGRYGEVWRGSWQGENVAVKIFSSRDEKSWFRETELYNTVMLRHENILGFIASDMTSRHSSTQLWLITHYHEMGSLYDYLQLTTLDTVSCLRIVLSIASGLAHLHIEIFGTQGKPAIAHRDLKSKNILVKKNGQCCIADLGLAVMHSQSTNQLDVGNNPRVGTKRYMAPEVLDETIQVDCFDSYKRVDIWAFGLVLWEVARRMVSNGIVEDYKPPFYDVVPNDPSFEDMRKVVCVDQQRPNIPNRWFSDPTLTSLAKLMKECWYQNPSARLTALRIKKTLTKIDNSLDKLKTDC

[16] = biological target: T2, Activin receptor type-1 (Homo sapiens) (UniProt Q04771); assay: as §2; details: at 10 µM
T2 sequence (whole entry): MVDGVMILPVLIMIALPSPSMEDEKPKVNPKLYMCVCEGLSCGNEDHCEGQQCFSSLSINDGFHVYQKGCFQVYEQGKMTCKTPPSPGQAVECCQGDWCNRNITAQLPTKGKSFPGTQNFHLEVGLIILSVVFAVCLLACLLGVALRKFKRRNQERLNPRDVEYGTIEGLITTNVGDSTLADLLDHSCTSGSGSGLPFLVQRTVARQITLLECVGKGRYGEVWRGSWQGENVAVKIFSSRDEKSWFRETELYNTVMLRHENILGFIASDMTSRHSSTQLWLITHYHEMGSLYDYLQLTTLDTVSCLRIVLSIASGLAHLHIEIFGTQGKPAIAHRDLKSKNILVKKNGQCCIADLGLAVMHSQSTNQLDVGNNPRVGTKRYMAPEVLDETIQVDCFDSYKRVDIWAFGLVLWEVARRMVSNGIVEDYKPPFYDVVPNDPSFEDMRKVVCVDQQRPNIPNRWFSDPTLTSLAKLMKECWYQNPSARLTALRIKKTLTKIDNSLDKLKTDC

[17] = biological target: Atypical kinase COQ8A, mitochondrial (Homo sapiens, UniProt Q8NI60); assay: Selectivity interaction (LanthaScreen Eu Kinase Binding Assay) EUB0001632a ADCK3; details: at 10 µM
Sequence of Atypical kinase COQ8A, mitochondrial (Q8NI60 163-647 limits assumed): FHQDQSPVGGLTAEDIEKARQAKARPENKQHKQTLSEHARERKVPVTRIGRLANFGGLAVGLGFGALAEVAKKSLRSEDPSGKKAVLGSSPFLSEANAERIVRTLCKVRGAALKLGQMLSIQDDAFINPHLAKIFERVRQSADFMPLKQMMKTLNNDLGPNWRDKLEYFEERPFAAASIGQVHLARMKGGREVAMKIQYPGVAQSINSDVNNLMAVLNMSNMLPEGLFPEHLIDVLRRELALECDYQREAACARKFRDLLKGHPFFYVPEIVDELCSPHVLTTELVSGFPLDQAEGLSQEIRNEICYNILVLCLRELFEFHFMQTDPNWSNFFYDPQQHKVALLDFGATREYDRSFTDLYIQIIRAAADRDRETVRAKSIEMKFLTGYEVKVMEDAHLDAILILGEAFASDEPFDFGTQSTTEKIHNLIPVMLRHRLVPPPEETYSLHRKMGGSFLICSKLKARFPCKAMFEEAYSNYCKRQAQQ

Compound: CN(C)C/C=C/C(=O)Nc1ccc(C(=O)N2CCCC(Nc3ncc(Cl)c(-c4c[nH]c5ccccc45)n3)C2)cc1 (centres undefined)
- % of control [2]: 100%

Compound: CN(C)CCOc1ccc(-c2nc(-c3ccncc3)c(-c3ccc4c(c3)CC/C4=N\O)[nH]2)cc1
- % of control [4]: 100%

Compound: CNC(=O)Nc1ccc(-c2nc(N3CC4CCC(C3)O4)c3cnn(C4CCC5(CC4)OCCO5)c3n2)cc1
- % of control [5]: 87%

Compound: CC(C)(O)[C@H](F)CN1Cc2cc(NC(=O)c3cnn4cccnc34)c(N3CCOCC3)cc2C1=O
- dTM [6]: -0.2 K

Compound: COc1cc(Nc2nc(C)cc(-c3cnn4nc(OC)ccc34)n2)cc(C(F)(F)F)c1
- % of control [12]: 94%

Compound: CCC(=O)N1CCN(c2ccc(-n3c(=O)ccc4cnc5ccc(-c6cnc7ccccc7c6)cc5c43)cc2C(F)(F)F)CC1
- % of control [13]: 81%
- % of control [14]: 99%

Further lines, results first:

- % of control [1]: 100%
Compound: CCN(CC)CCCCNc1ncc2cc(-c3cc(OC)cc(OC)c3)c(NC(=O)NC(C)(C)C)nc2n1

- dTM [3]: 0 K
Compound: CN(C(=O)c1cnn2cccnc12)c1cc2c(cc1N1CCOCC1)C(=O)N(C[C@@H](F)C(C)(C)O)C2

- % of inhibition [7]: 16.7%
- % of inhibition [8]: 2.7%
Compound: CC[C@@H]1[C@H](F)C(=O)N[C@@H]1COc1nccc2cc(C(N)=O)c(OC)cc12 [ZIMLOVISERTIB]

- dTM [9]: -1.1 K
Compound: Cc1cc(CN)cc(C)c1-c1ncn(C)c1-c1cncn1C

- % of control ([10]; at 1 µM): 111%
- % of control ([10]; at 5 µM): 106%
- % of control ([11]; at 1 µM): 138%
- % of control ([11]; at 5 µM): 166%
Compound: C=CC(=O)Nc1cccc(C(=O)Nc2ccc(Nc3cc(-c4[nH]c(SC)nc4C)ccn3)cc2)c1

- % of inhibition [15]: -125%
- % of inhibition [16]: -2.09%
- % of inhibition [17]: 8.48%
Compound: Cn1cc(-n2cnc3c(NCc4nc5cc(Cl)c(Cl)cc5[nH]4)nc(N4CCOCC4)nc32)cn1
